{"source": "patent EP1304107A2", "about": "“Use of oxazolidinines derivatives for treating psoriasis” (PHARMACIA & UPJOHN COMPANY, priority 1997, dated 1999)", "key": {"arthritis": {"system": "arthritis", "experiment": "Case report: patient with arthritis treated for pneumonia (EXAMPLE B)", "format": "in vivo, human", "settings": "person (Subject No 1912); 625 mg twice daily intravenously for 3 days, then 8 days oral at the same dose; taking no medications at follow up"}, "psoriasis": {"system": "psoriasis", "experiment": "Case report: treatment of a patient with chronic psoriasis (EXAMPLE A)", "format": "in vivo, human", "settings": "person", "experimental": "They had chronic psoriatic lesions of both elbows, groin, left leg, right leg, and lower back. The lesions were treated in the past with coal tar and topical steroids but not UV light. They were allergic to the excipients in the steroidal topical preparations.\nAfter six months it had returned to the pretreatment state."}, "[1]": {"settings": "after 625 mg twice daily for fourteen days"}}, "data": [{"smiles": "CC(=O)NC[C@H]1CN(c2ccc(N3CCOCC3)c(F)c2)C(=O)O1", "note": "[EXAMPLE 2, (S)-N-[[3-[3-Fluoro-4-(4-morpholinyl)phenyl]-2-oxo-5-oxazolidinyl]methyl]acetamide]", "values": [{"measurement": "arthritis status stated by the patient at long term follow up", "setting": "arthritis", "result": "arthritis was gone"}, {"measurement": "improvement in their psoriasis", "setting": "psoriasis; 625 mg twice daily for fourteen days (IV five days, then orally nine days), onset as soon as they started taking the medication", "result": "immediate improvement"}, {"measurement": "clearing of the psoriasis", "setting": "psoriasis; 625 mg twice daily for fourteen days, no other psoriasis treatment, from the time they took the medication", "result": "complete clearing"}, {"measurement": "time until psoriasis gradually began to return", "setting": "psoriasis; [1]", "result": "three"}, {"measurement": "time until psoriasis had returned to the pretreatment state", "setting": "psoriasis; [1]", "result": "six"}]}]}
